The results in this text go back to ChEMBL document CHEMBL1759998, “Discovery and synthesis of novel 3-phenylcoumarin derivatives as antidepressant agents” (Bioorg Med Chem Lett, 2011).

Calls of active or inactive are those of the source. The calls are words filed in the database; no cut-off is given here.

In data set [1] the test system is Mus musculus. Description: Antidepressant activity in Swiss albino mouse assessed as decrease in immobility duration at 0.5 mg/kg, ip administered 30 mins prior to test measured after 30 mins by tail suspension test (reference value: 79.9%). Conditions: route intraperitoneal. Also noted: scale not given: the % may be the effect or the level left. It counts as functional.

The subject of data set [2] is Mus musculus. Description: Neurotoxicity in Swiss albino mouse assessed as deffect in motor coordination at 1 mg/kg, ip measured for 2 mins by rotarod test. Conditions: in vivo. It counts as toxicity, organism-based. Also noted: dose 1 mg/kg, route intraperitoneal. Background: Falling from the rotarod earlier than controls is read as motor impairment.
Data set [3] has as its system Mus musculus. Description: Antidepressant activity in Swiss albino mouse assessed as decrease in immobility time at 0.25 mg/kg, ip measured for 6 mins by forced swim test. It counts as functional, organism-based. Also noted: dose 0.25 mg/kg.
The test system of data set [4] is Mus musculus. Description: Antidepressant activity in Swiss albino mouse assessed as decrease in immobility time at 0.5 mg/kg, ip measured for 6 mins by forced swim test. It counts as functional, organism-based. Further details: dose 0.5 mg/kg.
A short description of data set [5]: Solubility of the compound. It counts as physicochemical.
The test system of data set [6] is Mus musculus. Description: Antidepressant activity in Swiss albino mouse assessed as decrease in immobility duration at 30 mg/kg, ip administered 30 mins prior to test measured after 30 mins by tail suspension test (reference value: 79.9%). It counts as functional. Further details: scale not given: the % may be the effect or the level left. The following applies: route intraperitoneal.

Data set [7] deals with Mus musculus. The data set can be described thus: Antidepressant activity in Swiss albino mouse assessed as decrease in immobility time at 30 mg/kg, ip measured for 6 mins by forced swim test. It counts as functional, organism-based. Also noted: dose 30 mg/kg.

With `COc1ccc(-c2cc3cc(C=O)cc(C)c3oc2=O)cc1OC`, the Activity was 39.1% in the data set with Mus musculus [1] and “Non-toxic” with Mus musculus [2]. Moreover, the result in the data set on Mus musculus [3] and in the data set with Mus musculus [4] was Active.

For `COc1ccc(-c2cc3cc(C)c4ccccc4c3oc2=O)cc1`, the Activity was 49.9% in the data set on Mus musculus [1] and “Non-toxic” in the data set with Mus musculus [2]. Moreover, the outcome in the data set with Mus musculus [3] and in the data set on Mus musculus [4] was Active.

With `CCC(C)c1cc(C=O)cc2cc(-c3cccc(OC)c3)c(=O)oc12` (stereo not given), the Activity in the data set on Mus musculus [1] worked out at 70.6%.

As to `COc1ccc(-c2cc3cc(C)c4ccccc4c3oc2=O)cc1OC`, in data set [5], the solubility entry is given as “Insoluble”.

Take `CN(C)CCCN1c2ccccc2CCc2ccccc21` [IMIPRAMINE]: in the data set with Mus musculus [6], the Activity is given as 20.6%. In addition, in the data set on Mus musculus [7], the result was Active.

With `CCC(C)c1cc(C=O)cc2cc(-c3ccc(OC)cc3)c(=O)oc12` (stereo not given), in the data set on Mus musculus [1], the Activity is given as 71.4%.

For the compound `CCC(C)c1cc(C=O)cc2cc(-c3ccc(OC)c(OC)c3)c(=O)oc12` (stereo not given), in the data set on Mus musculus [1], the Activity turned out to be 72.5%.

Regarding `COc1ccc(-c2cc3cc(C=O)cc(C)c3oc2=O)cc1`, the Activity in the data set on Mus musculus [1] worked out at 78.1%.

Regarding `COc1ccc(-c2cc3cc(C)c4ccccc4c3oc2=O)c(OC)c1OC`, in the data set on Mus musculus [1], the Activity is given as 63.6%.

Turning to `COc1ccc(-c2cc3cc(C=O)cc(C)c3oc2=O)c(OC)c1OC`, the Activity in the data set on Mus musculus [1] was 47.3%; with Mus musculus [2], “Non-toxic”. In the data set with Mus musculus [4], the result was Active.

In the case of `COc1ccccc1-c1cc2cc(C=O)cc(C)c2oc1=O`, in data set [5], the solubility result was “Insoluble”.
